Legend:
S49 mouse lymphoma cells = assay: cAMP formation in S49 lymphoma cells (β-adrenergic agonist activity); format: cell-based; settings: for EC50: Mus musculus, catecholamine derivative, read-out: KA (concentration of the catecholamine for approximately half maximal stimulation of cAMP concentration); for activity in words / activity greater than that of isoproterenol: S49 cell assay; for activity greater than that of isoproterenol: relative to isoproterenol
From the text: The in vitro testing of cAMP formation in S49 lymphoma cells is a well documented and accepted test for indicating and anticipating β-adrenergic activity in the mammalian body.
Such testing procedures and their significance has been set forth in a number of prior publications, e.g. Shear et al., J. Biol. Chem.; 251, 7572 (1976); Coffino, et al., In Vitro, 14, No. 1, 140 et.seq. (1978); and in Johnson, et al.; Molecular Pharmacology, 15, 16-27 (1978). The tests measure increased cyclic adenosine monophosphate (cAMP) concentration in the S49 cells. In Table 1, KA indicates the concentration of the catecholamine for approximately half maximal stimulation of cAMP concentration. Emax is a measure of the maximal response (cAMP concentration) of the S49 cells to the respective catecholamines regardless of how high the concentration of the catecholamines may become. The Table compares the response of the cells to the particular catecholamine derivatives with the cells' response to isoproterenol. Thus a measure of the relative biological activity can be obtained.

C6 cells = molecular target: T1, C6 cells (Rattus norvegicus, UniProt P18090); assay: KD in C6 cells; format: binding; settings: relative to isoproterenol
T1 construct: endogenous in cells; host or cells: C6 cells
From the text: (§1) A large dependence of activity on the length of the methylene chain i.e., (CH2)n is seen with the toluides (Compounds 10-14). Of the compounds noted, peak activity is seen in the case of n=4 (Compound 12), which has an activity approximately two orders of magnitude greater than that of isoproterenol.

rats = assay: blood pressure and heart rate changes in rats on administration of the drug; format: in vivo; settings: rat, relative to isoproterenol
S49 cells = molecular target: T2, S49 cells (Mus musculus, UniProt P18762); assay: KD in S49 cells; format: binding; settings: relative to isoproterenol
T2 construct: endogenous in cells; host or cells: S49 lymphoma cells
From the text: as §1

T2 sequence (P18762 whole entry): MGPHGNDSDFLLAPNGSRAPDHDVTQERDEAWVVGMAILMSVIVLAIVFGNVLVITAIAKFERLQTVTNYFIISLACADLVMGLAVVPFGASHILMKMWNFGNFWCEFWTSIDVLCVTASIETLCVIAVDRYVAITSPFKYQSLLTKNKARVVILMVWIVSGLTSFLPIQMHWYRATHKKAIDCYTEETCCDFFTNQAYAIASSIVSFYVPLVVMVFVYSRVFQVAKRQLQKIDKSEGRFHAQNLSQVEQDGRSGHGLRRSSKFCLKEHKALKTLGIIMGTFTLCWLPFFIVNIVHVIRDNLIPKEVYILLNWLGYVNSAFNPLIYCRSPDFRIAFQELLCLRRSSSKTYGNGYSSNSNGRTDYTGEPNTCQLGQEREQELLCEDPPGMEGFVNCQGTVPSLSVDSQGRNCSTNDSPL
T1 sequence (P18090 whole entry): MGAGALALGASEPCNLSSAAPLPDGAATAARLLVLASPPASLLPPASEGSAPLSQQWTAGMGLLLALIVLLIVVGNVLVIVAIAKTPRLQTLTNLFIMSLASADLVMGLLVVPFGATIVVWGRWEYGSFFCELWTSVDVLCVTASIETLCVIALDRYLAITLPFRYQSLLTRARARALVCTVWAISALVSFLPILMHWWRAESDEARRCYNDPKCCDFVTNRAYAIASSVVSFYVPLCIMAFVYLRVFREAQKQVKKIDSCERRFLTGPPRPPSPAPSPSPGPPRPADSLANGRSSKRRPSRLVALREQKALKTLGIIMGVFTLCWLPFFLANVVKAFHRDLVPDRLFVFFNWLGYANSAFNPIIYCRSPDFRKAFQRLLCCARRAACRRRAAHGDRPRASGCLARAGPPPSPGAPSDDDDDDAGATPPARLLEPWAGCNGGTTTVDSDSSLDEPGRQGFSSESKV

EC50 (S49 mouse lymphoma cells; S49 lymphoma cells)	SMILES	also measured
370 nM	CC(CCCC(=O)O)NCC(O)c1ccc(O)c(O)c1 (stereo not shown) [Compound 7]	
350 nM	CC(CCCCCC(=O)O)NCC(O)c1ccc(O)c(O)c1 (stereo not shown) [Compound 9]	
0.26 nM	CC(CCCCC(=O)NC1CCCCC1)NCC(O)c1ccc(O)c(O)c1 (stereo not shown) [Compound 20]	
350 nM	CC(CCCCC(=O)O)NCC(O)c1ccc(O)c(O)c1 (stereo not drawn) [Compound 8, 6-(β-3,4-Dihydroxyphenyl-β-hydroxy)-ethylamino heptanoic acid]	
0.056 nM	Cc1ccc(NC(=O)CCCCC(C)NCC(O)c2ccc(O)c(O)c2)cc1 (stereo not drawn) [Compound 12, 6-(β-3,4-dihydroxyphenyl-β-hydroxy)-ethylamino Heptanoic Acid p-Toluide]	KD lower than for isoproterenol (C6 cells): 2 orders of magnitude; activity in words (S49 mouse lymphoma cells): peak activity; times more active than isoproterenol (rats): 50-70 times; KD lower than for isoproterenol (S49 cells): 2 orders of magnitude
22 nM	Cc1ccc(NC(=O)CCCCCC(C)NCC(O)c2ccc(O)c(O)c2)cc1 (stereo not shown) [Compound 14]	
1600 nM	CC(CCC(=O)O)NCC(O)c1ccc(O)c(O)c1 (stereo not shown) [Compound 6]	
0.18 nM	CCCCNC(=O)CCCCC(C)NCC(O)c1ccc(O)c(O)c1 (stereo not shown) [Compound 19]	

More lines, now with the values behind:

SMILES	EC50 (S49 mouse lymphoma cells; S49 lymphoma cells)	also measured
COc1ccc(NC(=O)CCCCC(C)NCC(O)c2ccc(O)c(O)c2)cc1 (stereo not shown) [Compound 16]	13 nM	activity in words (S49 mouse lymphoma cells): approximately the same activity as isoproterenol
CCCCc1ccc(NC(=O)CCCCC(C)NCC(O)c2ccc(O)c(O)c2)cc1 (stereo not shown) [Compound 15]		activity greater than that of isoproterenol (S49 mouse lymphoma cells): at least 3 orders of magnitude
CC(CCCCC(=O)Nc1ccc(C(F)(F)F)cc1)NCC(O)c1ccc(O)c(O)c1 (stereo not shown) [Compound 17]		activity greater than that of isoproterenol (S49 mouse lymphoma cells): at least 3 orders of magnitude
Cc1ccc(NC(=O)CCCC(C)NCC(O)c2ccc(O)c(O)c2)cc1 (stereo not shown) [Compound 11]	8 nM	
CC(C)NCC(O)c1ccc(O)c(O)c1 (racemic) [d,l-Isoproterenol, reference compound]		KA of d,l-isoproterenol (S49 mouse lymphoma cells; S49 lymphoma cells, comparison with the derivative on the same table line): 45 pM
Cc1ccc(NC(=O)CCC(C)NCC(O)c2ccc(O)c(O)c2)cc1 (stereo not shown) [Compound 10]	3.5 nM	

Reference: patent US4337207A, “Biologically active catecholamine derivatives” (Regents of the University of California, priority 1980, dated 1982)
